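Where inhibition never reached the appropriate level, the endpoint shown equals the highest concentration tested. Otherwise, values were interpolated linearly from a five-concentration, 48-hour dose response in 96-well plates. At the GI50, growth is halved.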 Active and inactive are the calls of the source. Rule as the data show it: active = GI50 up to about 1.1 µM and inactive = higher.
What was measured:
Assay in all cases: DTP human tumour cell line panel, 48 h
[1] = test system: 786-0
[2] = test system: MOLT-4
[3] = test system: HCT-15
[4] = test system: DU-145
[5] = test system: KM12
[6] = test system: OVCAR-4
[7] = test system: SNB-19
[8] = test system: OVCAR-8
[9] = test system: HT-29
[10] = test system: HL-60
[11] = test system: SK-MEL-5
[12] = test system: MDA-N
[13] = test system: EKVX
[14] = test system: Hs-578T
[15] = test system: HOP-62
[16] = test system: SW-620
[17] = test system: NCI-H460
[18] = test system: UACC-257
[19] = test system: Malme-3M

Structure (SMILES) | GI50 [1] | GI50 [2] | GI50 [3] [µM] | GI50 [4] | GI50 [5] | GI50 [6] | GI50 [7] | GI50 [8] | GI50 [9] | GI50 [10] | GI50 [11] | GI50 [12] | GI50 [13] | GI50 [14] | GI50 [15] | GI50 [16] | GI50 [17] | GI50 [18] | GI50 [19]
COc1cc(/C=C2\NC(=O)N(/C=C3\C(=O)Oc4ccccc4C3=O)C2=O)ccc1O | 88.7 µM (inactive) | 36.2 µM (inactive) | 39.3 | 87.1 µM (inactive) | 54.1 µM (inactive) | 91.8 µM (inactive) | 37.5 µM (inactive) | 56 µM (inactive) | 54.5 µM (inactive) | 20.7 µM (inactive) | 41 µM (inactive) | > 100 µM (inactive) | > 100 µM (inactive) | 33.6 µM (inactive) | 61.2 µM (inactive) | > 100 µM (inactive) | > 100 µM (inactive) | > 100 µM (inactive) | –
CC1=NN(c2nc(N)nc(CCl)n2)C(C)(C)C1 | 5.68 µM (inactive) | 19.5 µM (inactive) | 21 | 35.1 µM (inactive) | 19.3 µM (inactive) | 8.63 µM (inactive) | > 61.9 µM (inactive) | 23.9 µM (inactive) | 29.9 µM (inactive) | 4.69 µM (inactive) | 19.8 µM (inactive) | 31.5 µM (inactive) | 12.9 µM (inactive) | 21 µM (inactive) | 3.67 µM (inactive) | 25.6 µM (inactive) | 17.2 µM (inactive) | 51.9 µM (inactive) | –
Cc1ccc(C(=O)Oc2ccc(/C=C3\CCC/C(=C\c4ccc(OC(=O)c5ccc(C)cc5)cc4)C3=O)cc2)cc1 | > 100 µM (inactive) | > 100 µM (inactive) | > 100 | > 100 µM (inactive) | > 100 µM (inactive) | > 100 µM (inactive) | > 100 µM (inactive) | > 100 µM (inactive) | > 100 µM (inactive) | > 100 µM (inactive) | > 100 µM (inactive) | > 100 µM (inactive) | > 100 µM (inactive) | > 100 µM (inactive) | > 100 µM (inactive) | > 100 µM (inactive) | > 100 µM (inactive) | > 100 µM (inactive) | –
OC1CCC(COC(c2ccccc2)(c2ccccc2)c2ccccc2)O1 (stereo unspecified) | 19.4 µM (inactive) | 11.1 µM (inactive) | 16.9 | 20.8 µM (inactive) | 17.7 µM (inactive) | – | 21.1 µM (inactive) | 17.9 µM (inactive) | 18.3 µM (inactive) | 18.2 µM (inactive) | 16.9 µM (inactive) | 18.7 µM (inactive) | > 10 µM (inactive) | 16.6 µM (inactive) | 19.6 µM (inactive) | 17.5 µM (inactive) | 21 µM (inactive) | 16.8 µM (inactive) | 17.9 µM (inactive)
Fc1cccc(F)c1C1SCC2=Nc3ccccc3CN21 (stereo unspecified) | 32.4 µM (inactive) | 74 µM (inactive) | > 100 | 60 µM (inactive) | 54 µM (inactive) | > 100 µM (inactive) | 44.1 µM (inactive) | – | – | 44.2 µM (inactive) | 31.4 µM (inactive) | > 100 µM (inactive) | 79.6 µM (inactive) | 25.4 µM (inactive) | 20.8 µM (inactive) | > 100 µM (inactive) | 71 µM (inactive) | 60.3 µM (inactive) | –
COC(=O)c1ccc(OCc2ccc3nc(-c4ccccc4)c(Cl)nc3c2)cc1 | 21 µM (inactive) | 91.6 µM (inactive) | > 100 | > 100 µM (inactive) | > 100 µM (inactive) | 62.1 µM (inactive) | 92.5 µM (inactive) | 48 µM (inactive) | > 100 µM (inactive) | 40.6 µM (inactive) | 76.6 µM (inactive) | > 100 µM (inactive) | > 100 µM (inactive) | 30.1 µM (inactive) | 29.4 µM (inactive) | > 100 µM (inactive) | > 100 µM (inactive) | > 100 µM (inactive) | –

Reference: ChEMBL document CHEMBL1201862, “PubChem BioAssay data set” (2004)
